For one test, the target named is T1, TLR-9 (Homo sapiens, UniProt Q9NR96).
T1 sequence (Q9NR96 26-1032): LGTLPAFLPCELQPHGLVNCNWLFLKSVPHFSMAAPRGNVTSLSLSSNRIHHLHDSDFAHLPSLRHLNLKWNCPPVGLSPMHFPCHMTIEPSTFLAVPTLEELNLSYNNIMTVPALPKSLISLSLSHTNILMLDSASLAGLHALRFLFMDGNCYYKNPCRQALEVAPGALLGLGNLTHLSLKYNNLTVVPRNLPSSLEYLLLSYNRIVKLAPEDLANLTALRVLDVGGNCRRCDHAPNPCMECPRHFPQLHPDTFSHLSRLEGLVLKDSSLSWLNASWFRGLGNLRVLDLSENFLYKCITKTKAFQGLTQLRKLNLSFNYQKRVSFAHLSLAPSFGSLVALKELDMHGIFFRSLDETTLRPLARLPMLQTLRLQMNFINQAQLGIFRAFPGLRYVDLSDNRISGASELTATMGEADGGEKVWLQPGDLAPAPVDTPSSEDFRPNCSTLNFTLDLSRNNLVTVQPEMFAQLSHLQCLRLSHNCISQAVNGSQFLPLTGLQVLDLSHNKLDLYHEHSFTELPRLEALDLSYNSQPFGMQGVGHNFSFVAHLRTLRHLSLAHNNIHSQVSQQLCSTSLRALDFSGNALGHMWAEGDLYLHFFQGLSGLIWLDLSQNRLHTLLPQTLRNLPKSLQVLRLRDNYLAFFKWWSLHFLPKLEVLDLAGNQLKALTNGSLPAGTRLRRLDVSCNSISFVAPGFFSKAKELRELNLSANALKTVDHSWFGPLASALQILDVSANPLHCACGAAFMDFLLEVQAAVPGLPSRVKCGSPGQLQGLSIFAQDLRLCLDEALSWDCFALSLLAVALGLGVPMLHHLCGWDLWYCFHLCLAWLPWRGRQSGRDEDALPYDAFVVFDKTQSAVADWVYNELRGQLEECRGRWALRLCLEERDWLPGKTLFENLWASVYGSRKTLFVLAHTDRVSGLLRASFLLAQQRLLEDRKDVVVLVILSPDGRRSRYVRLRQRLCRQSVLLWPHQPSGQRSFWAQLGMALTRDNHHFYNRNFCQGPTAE
Conditions: US 20100016250 by Nagata et al.; cited from earlier work.

Test [1] addresses T2, ALPK1 (Homo sapiens, UniProt Q96QP1). Kind of test: IL8 secretion in HEK293 cells (IL8 ELISA) as indicator of ALPK1 activation. Conditions: cells cultured with fetal bovine, human or mouse serum. For orientation: In an ELISA, binding on a coated surface is turned into a signal by an enzyme label.
Test [2] has as its target T2, ALPK1. Kind of test: In vitro kinase assay of ALPK1-dependent TIFA phosphorylation. Format: biochemical. How it is done: We performed an in vitro kinase assay with H1b-ADP and H1b-ADP-6L along with ALPK1 protein (2 nM), and TIFA protein (1.6 uM) in kinase buffer containing 50 uM ATP. TIFA phosphorylation was analyzed by denaturing gel electrophoresis followed by western blotting using an anti-phosphothreonine antibody. H1b-ADP or H1b-ADP-6L was added at 2 nM, 0.4 nM, 80 pM, 16 pM, and 3 pM.
To test this, we performed an in vitro kinase reaction for ALPK1-dependent TIFA phosphorylation in the presence of either HBP or HIdA purified from E. coli containing inactivated HIdE, or in the presence of HBP and HIdA purified from the same HIdE wild-type E. coli used in the previous experiments. Phosphorylated TIFA (three concentrations, 1%, 0.2% and […]) was detected as described above by denaturing gel electrophoresis followed by Western analysis.

Test [3] has as its target T2, ALPK1. Kind of test: IL-8 and TNFα mRNA expression in HEK293 cells with control or ALPK1-directed siRNA. Format: cell-based. Details: ALPK1-directed small interfering RNA (siRNA) to silence ALPK1 expression in HEK293 cells; endogenous in cells; host or cells: HEK293. How it is done: To test whether HBP, HMP-1bP, and H1b-ADP were able to induce cytokine expression in an ALPK1 dependent manner, we used an ALPK1-directed small interfering RNA (siRNA) to silence ALPK1 expression in HEK293 cells. Cells were plated (1×10^4 cells/well) into 96-well plates and transfected with either control siRNA or ALPK1-directed siRNA according to the manufacturer's protocols (Lipofectamine™ RNAiMax™, Invitrogen 13778075). Following 2 days of culture, either (1) HBP (500 uM, 100 uM, 20 uM, FIG. 2A-2B) (2) HMP-1bP (500 uM, 100 uM, FIG. 3A-3B), (3) H1b-ADP (100 nM, 20 nM, 4 nM, 0.8 nM, FIG. 4A-4B) was added to culture medium and cells were harvested 4 hours later.

Test [4] deals with T2, ALPK1. Kind of test: Cell-free kinase assay of ALPK1 autophosphorylation (Western, anti-phospho-threonine). Conditions: ALPK1 2 nM, ATP; H1b-ADP 10, 1, 0.2 nM; HBP and HMP-1bP 1, 10, 100 nM. Format: biochemical. On the procedure:
ALPK1 activation results in its autophosphorylation. Accordingly, we next asked whether the binding of H1b-ADP to ALPK1 was sufficient to induce ALPK1 autophosphorylation. Phosphorylation assays were performed according to standard protocols. Briefly, ALPK1 was incubated (2 nM, 25° C., 1 h) in assay buffer (20 al, 25 mM HEPES pH 7.5, 50 mM KCl, 0.1 mM EDTA, 0.1 mM EGTA, 2 mM DTT, 1.5 mM CaCl2, 10 mM MgCl2) with ATP and chemically synthesized HBP, HMP-1bP, or H1b-ADP followed by denaturing gel electrophoresis and Western analysis with an anti-phospho-threonine antibody (CST) to detect autophosphorylation of ALPK1. […] The range of concentrations of HBP and HMP-1bP used in this assay (1 nM, 10 nM, 100 nM) was 10-fold higher than that used for H1b-ADP.

[5] abbreviates: 4 hours, control vs ALPK1-directed siRNA.

T2 sequence (Q96QP1 whole entry): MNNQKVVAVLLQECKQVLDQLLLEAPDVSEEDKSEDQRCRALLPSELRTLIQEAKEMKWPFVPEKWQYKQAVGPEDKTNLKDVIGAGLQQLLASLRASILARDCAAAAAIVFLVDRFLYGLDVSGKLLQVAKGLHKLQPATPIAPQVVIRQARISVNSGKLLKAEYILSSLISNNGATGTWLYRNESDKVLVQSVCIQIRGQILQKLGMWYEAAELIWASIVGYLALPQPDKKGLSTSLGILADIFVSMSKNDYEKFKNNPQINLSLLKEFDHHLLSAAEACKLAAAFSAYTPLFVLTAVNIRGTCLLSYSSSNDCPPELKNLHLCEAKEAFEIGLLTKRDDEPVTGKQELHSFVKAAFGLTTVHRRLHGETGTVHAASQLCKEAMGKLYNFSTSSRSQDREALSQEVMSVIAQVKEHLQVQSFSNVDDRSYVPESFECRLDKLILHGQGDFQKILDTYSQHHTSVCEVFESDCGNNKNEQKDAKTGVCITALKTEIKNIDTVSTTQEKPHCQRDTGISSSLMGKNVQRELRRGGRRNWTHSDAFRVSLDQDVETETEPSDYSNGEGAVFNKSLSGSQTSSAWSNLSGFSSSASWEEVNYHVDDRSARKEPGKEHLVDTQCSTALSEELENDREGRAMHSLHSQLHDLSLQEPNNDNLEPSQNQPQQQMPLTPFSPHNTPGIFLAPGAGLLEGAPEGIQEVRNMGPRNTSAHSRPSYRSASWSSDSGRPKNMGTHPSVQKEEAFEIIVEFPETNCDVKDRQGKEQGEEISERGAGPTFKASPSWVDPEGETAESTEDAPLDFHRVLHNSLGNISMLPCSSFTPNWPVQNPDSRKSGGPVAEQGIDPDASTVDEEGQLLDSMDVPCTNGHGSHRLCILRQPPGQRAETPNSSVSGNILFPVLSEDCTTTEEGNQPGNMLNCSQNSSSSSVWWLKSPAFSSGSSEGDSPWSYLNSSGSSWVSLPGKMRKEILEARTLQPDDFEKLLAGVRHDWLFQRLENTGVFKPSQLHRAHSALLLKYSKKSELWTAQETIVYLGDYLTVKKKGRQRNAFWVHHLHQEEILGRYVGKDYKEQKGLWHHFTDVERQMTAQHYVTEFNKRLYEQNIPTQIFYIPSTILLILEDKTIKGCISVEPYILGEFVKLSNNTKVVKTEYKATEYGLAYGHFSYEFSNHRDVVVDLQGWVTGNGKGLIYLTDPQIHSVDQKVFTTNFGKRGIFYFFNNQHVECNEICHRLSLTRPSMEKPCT

Turning to `Nc1ncnc2c1ncn2[C@@H]1O[C@H](COP(=O)(O)OP(=O)(O)O[C@@H]2O[C@H]([C@H](O)CO)[C@@H](O)[C@H](O)[C@@H]2O)[C@@H](O)[C@H]1O` [Compound H1b-ADP, D-glycero-D-manno-heptose-1β-ADP], the TLR-9 agonist activity result on TLR-9 is given as “TLR-9 agonist”. Further, the “activity to activate ALPK1 in HEK293 cells (IL8 secretion)” value on ALPK1 [1] is reported as “greatly declined”. In addition, the “TIFA phosphorylation (ALPK1-dependent signaling)” value on ALPK1 [2] (ALPK1 2 nM, TIFA 1.6 uM, 50 uM ATP, 2 nM to 3 pM) is “activated ALPK1-dependent signaling”. Besides, the “phosphorylation of the ALPK1 substrate TIFA” value on ALPK1 [2] (FIG. 7, chemically-synthesized compounds) is reported as “TIFA is phosphorylated only in the presence of H1b-ADP”. On ALPK1 [3] (setting [5]), the “IL-8 mRNA expression” value is reported as “increased in an ALPK1-dependent manner” and the “TNFα mRNA expression” value is “increased in an ALPK1-dependent manner”. In addition, the “concentration at which IL-8 and TNFα mRNA expression were induced” value on ALPK1 [3] (FIG. 5) turned out to be 10 nM. On ALPK1 [4], the “autophosphorylation of ALPK1” value was “detected only in the presence of H1b-ADP”.

The values are drawn from patent US11186606B2, “Compositions and methods of modulating the immune response by activating alpha protein kinase 1” (Shanghai Yao Yuan Biotechnology Co., Ltd., priority 2017, dated 2021).
